Measurements: patent publication US4849335A, “Method for detecting the mutagenicity of substances susceptible of inducing the deterioration of cellular DNA, utilizing the production of an SOS response” (priority 1982, dated 1989)

Experiments:
Format in all cases: cell-based, E. coli strain PQ37
[1] = tested on: sfiA::operon lacZ recombinant; settings: FIG. 1 curve c; measured 2 hours after the start of the experiment; inhibitory concentrations
Text: FIGS. 2 and 3 contain the curves representing the variations of the logarithm of the abovesaid ratio, named below SOSIF (abbreviation of "SOS induction factor"), measurable in similar cultures, in the presence of different genotoxic substances, according to their respective concentrations in the culture media, in nanomoles per specimen tested.
(§1) The micro-organism employed in the tests whose description follows is a transformed E. coli strain, named PQ37, deposited in the National Collection of Culture Micro-Organisms (C.N.C.M.) of the Pasteur Institute of Paris, under no. I-205 on the date of Sept. 24, 1982. The genetic characteristics of this micro-organism are as follows: F^- thr leu his-4 pyrD thi galE galK or T lacΔUI69 srl 300::Tn10 rpoB rpsL uvrA rfa trp::Muc^+ sfiA::Mud(AP, lac)c-Ts. It is constitutive for the synthesis of the alkaline phosphatase (Pho^c). […]
A culture of the abovesaid micro-organism previously developed up to the exponential phase in LB culture medium (Bacto tryptone 10 g, Bacto yeast extract 5 g, NaC1 10 g, water Q.S.P. 1 1), also containing ampicillin, is diluted ten times either in fresh medium, or in the activation mixture described by AMES B.N. and Coll. […] After two hours incubation at 37° C. with shaking, the β-galoactosidase and alkaline phosphatase activities were determined. […]

β-galactosidase = β-galactosidase activity in E. coli PQ37 culture; settings: FIG. 1 curve a; beyond a certain concentration of genotoxic substance; 2 hours
Text: The micro-organism employed in the tests whose description follows is a transformed E. coli strain, named PQ37, deposited in the National Collection of Culture Micro-Organisms (C.N.C.M.) of the Pasteur Institute of Paris, under no. I-205 on the date of Sept. 24, 1982. The genetic characteristics of this micro-organism are as follows: F^- thr leu his-4 pyrD thi galE galK or T lacΔUI69 srl 300::Tn10 rpoB rpsL uvrA rfa trp::Muc^+ sfiA::Mud(AP, lac)c-Ts. It is constitutive for the synthesis of the alkaline phosphatase (Pho^c).
This strain has been obtained by genetic recombinations suitable to confer on it the above-indicated genotype, from the strain containing the recombinant sfiA::lacZ deposited at the C.N.C.M., under no. I-152 Apr. 13, 1981.
A culture of the abovesaid micro-organism previously developed up to the exponential phase in LB culture medium (Bacto tryptone 10 g, Bacto yeast extract 5 g, NaC1 10 g, water Q.S.P. 1 1), also containing ampicillin, is diluted ten times either in fresh medium, or in the activation mixture described by AMES B.N. and Coll. (1975), "Mutation Research" 31, 347-364. Aliquot parts of 0.6 ml are distributed in glass test tubes each containing a certain dose of the substance under test. After two hours incubation at 37° C. with shaking, the β-galoactosidase and alkaline phosphatase activities were determined. […]

alkaline phosphatase = alkaline phosphatase activity in E. coli PQ37 culture; settings: FIG. 1 curve b; beyond a certain concentration of genotoxic substance; 2 hours
Text: as §1
A culture of the abovesaid micro-organism previously developed up to the exponential phase in LB culture medium (Bacto tryptone 10 g, Bacto yeast extract 5 g, NaC1 10 g, water Q.S.P. 1 1), also containing ampicillin, is diluted ten times either in fresh medium, or in the activation mixture described by AMES B.N. and Coll. […] After two hours incubation at 37° C. with shaking, the β-galoactosidase and alkaline phosphatase activities were determined.
It is possible in particular to carry out the determination of the alkaline phosphatase under the following condition: 2.7 ml of T buffer (solution of 121 g of Tris (hydroxy-methyl)-aminomethane per liter, whose pH has been adjusted to 8.8 with HC1) were added to 0.3 ml of the cell culture. […] 5 minutes later, 1 ml of 2 N Tris is added to restore the color, which is measured in the spectrophotometer at 420 nm. […]

For O=[N+]([O-])c1cc[n+]([O-])c2ccccc12 [4NQO, 4-nitroquinoline-1-oxide], the “SOSIF ratio at concentrations of the genotoxic substance which inhibit the synthesis of the proteins” value [1] was “remains substantially constant”, the “β-galactosidase activity (inhibiting effect of the synthesis of the proteins)” value (β-galactosidase) was “reduction” and the “alkaline phosphatase activity (inhibiting effect of the synthesis of the proteins)” value (alkaline phosphatase) was “reduction”.
